Results: patent US20150284362A1, “CARBAZOLE-CONTAINING AMIDES, CARBAMATES, AND UREAS AS CRYPTOCHROME MODULATORS” (ReSet Therapeutics, Inc., priority 2014, published 2015)

Columns and labels:
[1] = tested on: core clock gene mRNAs in liver; assay: Four day study, liver core clock gene mRNA, ICR mice; format: in vivo, mouse; conditions: 50 mg/kg PO BID 4 days, ZT6
Experimental: Male ICR mice (weighing 30-35 g), obtained from Charles River Laboratories (Hollister, Calif.), were used for the experiment following at least 3 days of acclimation. Mice were dosed with vehicle (WFI or 10% Kolliphor) or compound (50 mg/kg, dose volume 5 mL/kg, PO) for 4 days BID (twice a day), beginning in the afternoon of the first day. The last dose of compound or vehicle was administered on the morning of harvest. On the day of harvest (6 hours following the final dose), mice were euthanized by CO2 asphyxiation and 50 mg of liver tissue was excised and placed in a tube containing 500 μl of RNA later.
E.Z.N.A.® HP Total RNA Isolation Kits (R6812-01 and the protocol described in the Manual, Revised 2010) were utilized to prepare and isolate RNA from the liver samples. To prepare the RNA samples, 10-30 mg of sample was removed from RNA-Later and placed in a 1.5 ml microfuge tube. […] The cleared supernatant was transferred by pipetting to a DNA Clearance Column Pre-inserted in a 2 mL Collection Tube. The assembled column was centrifuged at 13,000×g for 1 minute, and the flow-through was saved. An equal volume (700 μl) of 70% ethanol was added to the lysate and mixed. The sample was then applied to a HiBind RNA spin column placed into a 2 ml collection tube, which was centrifuged at 10,000×g for 60 seconds at room temperature. RNA Wash Buffer I (250 μl) was added by pipetting directly onto a new HiBind RNA column inserted in a 2 ml collection tube. The assembled column was centrifuged at 10,000×g for 60 seconds. The RNA column was placed into a new 2 ml collection tube. […] The column with bound RNA was incubated at room temperature (25-30° C.) for 15 minutes. RNA Wash Buffer I (500 μl) was added to the column and placed on a bench top for 2 minutes. After centrifuging at 10,000×g for 60 seconds, discarding the flow-through, 500 μl of RNA Wash Buffer II was added and centrifuged at 10,000×g for 60 seconds. Another 500 μl of RNA Wash Buffer II was added and the column assembly was centrifuged at 10,000×g for 60 seconds. The column was centrifuged for 2 minutes at maximum speed to completely dry the HiBind matrix. The column was placed in a clean 1.5 ml microcentrifuge tube and 40-70 μl of molecular biology grade water is added. After sitting for 1 minute, the column was centrifuged for 2 minutes at maximum speed to elute the RNA. The isolated RNA was collected into the collection tube.
RediPlate 96 RiboGreen RNA Quantification Kit (Invitrogen) RediPlate standard curve was prepared by transferring 20 μl reconstituted RNA standard to a RediPlate well reconstituted in 180 μl RediPlate TE buffer. For liver RNAs prepared from 30-100 mg of tissue using a kit similar to the Omega Bio-Tek HP Total RNA Kit and eluted in RNAse-free water in a volume of 50 μl (microliters), 5 μl of the total RNA is diluted in 195 μl of RediPlate TE buffer (1:40 dilution of RNA), mix. […] Alternatively, one can use the FlexStation 3 with Ex 488 nm and Em 525 nm and a Cutoff of 515 nm.

[2] = biological target: T1, FAD-binding domain of human CRY1 protein (hCRY1) (Homo sapiens, UniProt Q16526); assay: Thermal shift binding assay (differential scanning fluorimetry); conditions: purified FADBD 0.5 μg per well, 5% DMSO
T1 construct: Myc-DDK (Myc + FLAG) (C); made in house
T1 sequence (Q16526 1-494): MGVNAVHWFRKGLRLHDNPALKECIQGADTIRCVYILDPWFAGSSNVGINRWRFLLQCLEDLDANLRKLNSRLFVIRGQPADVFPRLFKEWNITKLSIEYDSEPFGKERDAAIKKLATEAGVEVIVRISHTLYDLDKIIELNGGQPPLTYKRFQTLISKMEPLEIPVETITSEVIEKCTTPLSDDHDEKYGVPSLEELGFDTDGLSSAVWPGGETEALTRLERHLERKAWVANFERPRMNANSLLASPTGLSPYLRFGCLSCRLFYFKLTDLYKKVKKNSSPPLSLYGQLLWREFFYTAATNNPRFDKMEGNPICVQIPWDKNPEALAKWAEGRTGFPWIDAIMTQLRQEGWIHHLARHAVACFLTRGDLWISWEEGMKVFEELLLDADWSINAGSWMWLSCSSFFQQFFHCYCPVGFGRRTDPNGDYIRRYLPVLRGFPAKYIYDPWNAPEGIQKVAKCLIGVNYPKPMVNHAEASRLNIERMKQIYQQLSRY
Experimental: Binding of compounds to the isolated FAD-binding domain of human CRY1 protein (hCRY1) was determined using a differential scanning fluorimetry (‘thermal shift’) assay (Pantoliano et al. (2001) J Biomol Screening 6, 429; Niesen et al. (2007) Nature Protocols 2, 2212). The FAD-binding domain of hCRY1 (amino acid residues 1-494) with a C-terminal Myc-DDK tag (FADBD), was produced by transient transfection of HEK293T cells (Catalog # CRL-3216, American Type Culture Collection) and purified by anti-FLAG affinity chromatography (Catalog # A2220, Sigma-Aldrich). FADBD (0.5 μg per well) was incubated with dilutions of compounds in DMSO (5% DMSO final concentration in reaction) in 17.5 μl Tris-buffered saline (TBS) for 10 minutes on ice, then 2.5 μl of 8× Sypro-Orange Dye (Life Technologies) was added to each well. Triplicate wells were assayed for each compound concentration. The melting temperatures were measured in an ABI7500 quantitative PCR instrument using the melt curve mode with a thermal profile of 2 minutes at 25° C., followed by a ramp rate of 1° C./minute up to 99° C. The melting temperature for each well was determined from the first derivative of the melt curve. The change in melting temperature (ΔTm) was obtained by subtraction of the melting temperature of the FADBD in 5% DMSO alone.

change in melting temperature (ΔTm) of hCRY1 FADBD [2]: dose-dependent increase in ΔTm
SMILES: O=C1NCCN1CC(O)Cn1c2ccc(F)cc2c2cc(F)ccc21 (stereo not drawn) [Compound 72, 1-(3-(3,6-difluoro-9H-carbazol-9-yl)-2-hydroxypropyl)imidazolidin-2-one]
Cry2 transcripts in liver [1]: decrease | liver Per2 expression [1]: suppression
